Test results published in US11952377B2, “Quinolines and azaquinolines as inhibitors of CD38” (BOEHRINGER INGELHEIM INTERNATIONAL GMBH, priority 2021, dated 2024).

Target: Human CD38 (Homo sapiens (Human), UniProt P28907)
Assay: CD38 enzyme assay
Assay type: biochemical
Details: 2 nM CD38, 30 min preincubation at 25° C., absorbance at 405 nm after 60 minutes
Source text: [formula] where CMPD is the value for the individual compound treated well, MIN is the average of the values of the 4-(((1r,4r)-4-(2-methoxyethoxy)cyclohexyl)amino)-1-methyl-6-(thiazol-5-yl)quinolin-2(1H)-one positive control wells and MAX is the average of the values of the DMSO negative control wells.
The % inhibition values were plotted as a function of compound concentration and the following 4-parameter fit was applied to derive the IC50 values:
[formula] where top and bottom are normally allowed to float, but may be fixed at 100 or 0 respectively in a 3-parameter fit. The Hill Coefficient is normally allowed to float but may also be fixed at 1 in a 3-parameter fit. Y is the % inhibition and X is the compound concentration.

Sequence of Human CD38 (P28907 whole entry): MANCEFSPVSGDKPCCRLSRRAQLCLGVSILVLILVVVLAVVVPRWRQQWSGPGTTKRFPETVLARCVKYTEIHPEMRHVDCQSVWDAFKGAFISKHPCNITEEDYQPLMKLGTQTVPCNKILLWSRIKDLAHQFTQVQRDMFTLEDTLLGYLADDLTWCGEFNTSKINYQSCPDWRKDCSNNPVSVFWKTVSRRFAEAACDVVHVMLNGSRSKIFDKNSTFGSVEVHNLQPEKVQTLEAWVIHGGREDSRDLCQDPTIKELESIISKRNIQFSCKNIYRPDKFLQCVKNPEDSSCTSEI

| IC50 [nM] | Structure (SMILES) |
| --- | --- |
| 10 to 100 | Cn1c(=O)cc(Nc2ccc(OCCN3CCOCC3)nc2)c2nc(-n3ccnc3)ncc21 [Example 10, 2-(1H-imidazol-1-yl)-5-methyl-8-((6-(2-morpholinoethoxy)pyridin-3-yl)amino)pyrido[3,2-d]pyrimidin-6(5H)-one] |
| 10 to 100 | Cn1c(=O)cc(Nc2ccc(OCC(F)(F)F)nc2)c2cc(-n3ccnc3)ccc21 [Example 15, 6-(1H-imidazol-1-yl)-1-methyl-4-((6-(2,2,2-trifluoroethoxy)pyridin-3-yl)amino)quinolin-2(1H)-one] |
| 10 to 100 | COCCO[C@H]1CC[C@H](Nc2cc(=O)n(C)c3ccc(-n4ccnc4)nc23)CC1 [Example 3, 6-(1H-imidazol-1-yl)-4-(((1r,4r)-4-(2-methoxyethoxy)cyclohexyl)amino)-1-methyl-1,5-naphthyridin-2(1H)-one] |
| 10 to 100 | Cn1c(=O)cc(N[C@H]2CC[C@H](NCC(F)(F)F)CC2)c2cc(-n3ccnc3)ccc21 [Example 11, 6-(1H-imidazol-1-yl)-1-methyl-4-(((1r,4r)-4-((2,2,2-trifluoroethyl)amino)cyclohexyl)amino)quinolin-2(1H)-one] |
| < 10 | Cn1c(=O)cc(N[C@H]2CC[C@H](C3(O)CC3)CC2)c2nc(-n3ccnc3)ncc21 [Example 27, 8-(((1r,4r)-4-(1-hydroxycyclopropyl)cyclohexyl)amino)-2-(1H-imidazol-1-yl)-5-methylpyrido[3,2-d]pyrimidin-6(5H)-one] |
| < 10 | Cn1c(=O)cc(N[C@H]2CC[C@H](C(C)(C)O)CC2)c2nc(-n3ccnc3)ncc21 [Example 8, 8-(((1r,4r)-4-(2-hydroxypropan-2-yl)cyclohexyl)amino)-2-(1H-imidazol-1-yl)-5-methylpyrido[3,2-d]pyrimidin-6(5H)-one] |
| < 10 | Cn1c(=O)cc(N[C@H]2CC[C@H](NCC(F)(F)F)CC2)c2nc(-n3ccnc3)ncc21 [Example 23, 2-(1H-imidazol-1-yl)-5-methyl-8-(((1r,4r)-4-((2,2,2-trifluoroethyl)amino)cyclohexyl)amino)pyrido[3,2-d]pyrimidin-6(5H)-one] |
| 10 to 100 | Cn1c(=O)cc(N[C@H]2CC[C@H](OCCN3CCCC3)CC2)c2cc(-n3ccnc3)ccc21 [Example 18, 6-(1H-imidazol-1-yl)-1-methyl-4-(((1r,4r)-4-(2-(pyrrolidin-1-yl)ethoxy)cyclohexyl)amino)quinolin-2(1H)-one] |
| 10 to 100 | Cn1c(=O)cc(N[C@H]2CC[C@H](NC3COC3)CC2)c2cc(-n3ccnc3)ccc21 [Example 2, 6-(1H-imidazol-1-yl)-1-methyl-4-(((1r,4r)-4-(oxetan-3-ylamino)cyclohexyl)amino)quinolin-2(1H)-one] |
| 10 to 100 | Cn1c(=O)cc(N[C@H]2CC[C@H](C(C)(C)O)CC2)c2cc(-n3ccnc3)ccc21 [Example 12, 4-(((1r,4r)-4-(2-hydroxypropan-2-yl)cyclohexyl)amino)-6-(1H-imidazol-1-yl)-1-methylquinolin-2(1H)-one] |
| < 10 | Cn1c(=O)cc(Nc2ccc(C#N)cc2)c2nc(-n3ccnc3)ncc21 [Example 22, 4-((2-(1H-imidazol-1-yl)-5-methyl-6-oxo-5,6-dihydropyrido[3,2-d]pyrimidin-8-yl)amino)benzonitrile] |
| 10 to 100 | Cn1c(=O)cc(N[C@H]2CC[C@H](C(C)(C)O)CC2)c2cc(-n3ccnc3)ncc21 [Example 5, 4-(((1r,4r)-4-(2-hydroxypropan-2-yl)cyclohexyl)amino)-6-(1H-imidazol-1-yl)-1-methyl-1,7-naphthyridin-2(1H)-one] |
| 10 to 100 | COCCO[C@H]1CC[C@H](Nc2cc(=O)n(C)c3cnc(-n4ccnc4)cc23)CC1 [Example 6, 6-(1H-imidazol-1-yl)-4-(((1r,4r)-4-(2-methoxyethoxy)cyclohexyl)amino)-1-methyl-1,7-naphthyridin-2(1H)-one] |
| < 10 | Cn1c(=O)cc(N[C@H]2CC[C@H](NCC(C)(F)F)CC2)c2nc(-n3ccnc3)ncc21 [Example 19, 8-(((1r,4r)-4-((2,2-difluoropropyl)amino)cyclohexyl)amino)-2-(1H-imidazol-1-yl)-5-methylpyrido[3,2-d]pyrimidin-6(5H)-one] |
| 10 to 100 | Cn1c(=O)cc(NC2CCN(S(C)(=O)=O)CC2)c2cc(-n3ccnc3)ccc21 [Example 13] |
| 10 to 100 | Cn1c(=O)cc(N[C@H]2CC[C@H](C(C)(C)O)CC2)c2nc(-n3ccnc3)ccc21 [Example 4, 4-(((1r,4r)-4-(2-hydroxypropan-2-yl)cyclohexyl)amino)-6-(1H-imidazol-1-yl)-1-methyl-1,5-naphthyridin-2(1H)-one] |
| 10 to 100 | Cn1c(=O)cc(Nc2ccc(OCCN3CCCC3)nc2)c2nc(-n3ccnc3)ncc21 [Example 25] |
| 10 to 100 | CN(C)CCOc1ccc(Nc2cc(=O)n(C)c3ccc(-n4ccnc4)cc23)cn1 [Example 17, 4-((6-(2-(dimethylamino)ethoxy)pyridin-3-yl)amino)-6-(1H-imidazol-1-yl)-1-methylquinolin-2(1H)-one] |
| < 10 | CO[C@H]1CC[C@H](Nc2cc(=O)n(C)c3cnc(-n4ccnc4)nc23)CC1 [Example 24, 2-(1H-imidazol-1-yl)-8-(((1r,4r)-4-methoxycyclohexyl)amino)-5-methylpyrido[3,2-d]pyrimidin-6(5H)-one] |
| < 10 | Cn1c(=O)cc(Nc2ccc(C(F)(F)F)cc2)c2nc(-n3ccnc3)ncc21 [Example 9, 2-(1H-imidazol-1-yl)-5-methyl-8-((4-(trifluoromethyl)phenyl)amino)pyrido[3,2-d]pyrimidin-6(5H)-one] |
| < 10 | Cn1c(=O)cc(NC2CCC(F)(F)CC2)c2nc(-n3ccnc3)ncc21 [Example 26, 8-((4,4-difluorocyclohexyl)amino)-2-(1H-imidazol-1-yl)-5-methylpyrido[3,2-d]pyrimidin-6(5H)-one] |
| 10 to 100 | COCCO[C@H]1CC[C@H](Nc2cc(=O)n(C)c3ccc(-n4ccnc4)cc23)CC1 [Example 1, 6-(1H-imidazol-1-yl)-4-(((1r,4r)-4-(2-methoxyethoxy)cyclohexyl)amino)-1-methylquinolin-2(1H)-one] |
| 10 to 100 | COCCO[C@H]1CC[C@H](Nc2cc(=O)n(C)c3cnc(-n4ccnc4)nc23)CC1 [Example 7, 2-(1H-imidazol-1-yl)-8-(((1r,4r)-4-(2-methoxyethoxy)cyclohexyl)amino)-5-methylpyrido[3,2-d]pyrimidin-6(5H)-one] |
| 10 to 100 | CN(C)C(=O)CO[C@H]1CC[C@H](Nc2cc(=O)n(C)c3cnc(-n4ccnc4)nc23)CC1 [Example 21, 2-(((1r,4r)-4-((2-(1H-imidazol-1-yl)-5-methyl-6-oxo-5,6-dihydropyrido[3,2-d]pyrimidin-8-yl)amino)cyclohexyl)oxy)-N,N-dimethylacetamide] |
| 10 to 100 | CN(C)C(=O)CO[C@H]1CC[C@H](Nc2cc(=O)n(C)c3ccc(-n4ccnc4)cc23)CC1 [Example 14, 2-(((1r,4r)-4-((6-(1H-imidazol-1-yl)-1-methyl-2-oxo-1,2-dihydroquinolin-4-yl)amino)cyclohexyl)oxy)-N,N-dimethylacetamide] |
